# Source: patent US20190022225A1, “PROTOCOL FOR INCREASING LIFE EXPECTANCY IN A TEST SUBJECT” (Mayo Foundation for Medical Education and Research, priority 2015, published 2019)
# “Also recorded” adds a separate entry of the source.
# Assays:
# [1] = tested on: senescent cells in osteoarthritic joint of mice after ACL surgery; assay: Osteoarthritis mouse model (ACL surgery), intra-articular treatment; format: in vivo; conditions: for histopathology: destruction of the proteoglycan layer: Nutlin-3A in C57BL/6J, GCV 2.5 μg intra-articular in 3MR mice
# Method: Parallel studies were performed. One study investigated the effect of eliminating senescent cells with ganciclovir (GCV) in 3MR mice. Mice underwent surgery to cut the anterior cruciate ligament of one rear limb to induce osteoarthritis in the joint of that limb. During week 2 post-surgery, 3MR mice received 2.5 μg GCV to the operated knee by intra-articular injection, qd for 5 days, with a 2nd treatment (2.5 μg GCV qd for 5 days) during week 4 post-surgery. At the end of 4 weeks post-surgery, operated joints of the mice were monitored for presence of senescent cells, assessed for function, monitored for markers of inflammation, and underwent histological assessment.
# In a parallel study, C57BL/6J mice underwent surgery to cut the anterior cruciate ligament of one rear limb to induce osteoarthritis in the joint of that limb. During week 3 and week 4 post-surgery, the mice were treated with 5.8 μg of Nutlin-3A (n=7) per operated knee by intra-articular injection, qod for 2 weeks. At the end of 4 weeks post-surgery, joints of the mice were monitored for presence of senescent cells, assessed for function, monitored for markers of inflammation, and underwent histological assessment.
# Two control groups of mice were included in the studies performed: one group comprising C57BL/6J or 3MR mice that had undergone a sham surgery (n=3) (i.e., surgical procedures followed except for cutting the ACL) and intra-articular injections of vehicle parallel to the GCV-treated group; and one group comprising C57BL/6J or 3MR mice that had undergone an ACL surgery and received intra-articular injections of vehicle (n=5) parallel to the GCV-treated group.
# RNA from the operated joints of mice from the Nutlin-3A treated mice was analyzed for expression of SASP factors (mmp3, IL-6) and senescence markers (p16). qRT-PCR was performed to detect mRNA levels. […] RNA from the operated joints of mice was also analyzed for expression of type 2 collagen and compared with expression of actin as a control.
# Function of the limbs was assessed 4 weeks post-surgery by a weight bearing test to determine which leg the mice favored (FIG. 39). The mice were allowed to acclimate to the chamber on at least 3 occasions prior to taking measurements. Mice were maneuvered inside the chamber to stand with 1 hind paw on each scale. The weight that was placed on each hind limb was measured over a 3-second period. At least 3 separate measurements were made for each animal at each time point. The results were expressed as the percentage of the weight placed on the operated limb versus the contralateral unoperated limb.
# The function of the limbs was also assessed at 4 weeks post-surgery by hotplate analysis to show sensitivity and reaction to pain stimulus. In brief, a mouse was placed on a hotplate at 55° C. When placed on the hot surface of the plate, mice will lift their paws and lick them (paw-lick response) due to attainment of pain threshold. The latency period for the hind limb response (paw-lick response) is recorded as response time.
# Histopathology of osteoarthritis induced by ACL surgery illustrated that the proteoglycan layer was destroyed.
# [2] = tested on: 3MR mice with bleomycin induced lung injury; assay: Bleomycin induced lung injury model; format: in vivo, mouse; conditions: for lung compliance (static and dynamic) / lung elastance: 21 days post-bleomycin, Nutlin-3A data not statistically significant
# Method: One animal model study assessed the effect of clearance of senescence cells in the transgenic mouse strain 3MR that has bleomycin induced lung injury. […] Control mice were administered saline. The day following bleomycin treatment, ganciclovir (GCV) (25 mg/kg in PBS) was administered. 3MR mice were treated via intraperitoneal injection with ganciclovir for 5 consecutive days, followed by 5 days of rest, followed by a second treatment cycle of 5 consecutive days. Untreated mice received an equal volume of vehicle. At 7, 14, and 21 days post-bleomycin treatment, lung function was assessed by monitoring oxygen saturation using the MouseSTAT PhysioSuite pulse oximeter (Kent Scientific). Animals were anesthetized with isoflurane (1.5%) and a toe clip was applied. Mice were monitored for 30 seconds and the average peripheral capillary oxygen saturation (SpO2) measurement over this duration was calculated. […] At 21 days post-bleomycin treatment, airway hyper-reactivity (AHR) of mice was examined. AHR of mice was measured by methacholine challenge while other parameters of lung function (airway mechanics, lung volume and lung compliance) were determined using a SCIREQ flexiVent ventilator. While under ketamine/xylazine anesthesia and subjected to cannulation of the trachea via a tracheostomy (19Fr blunt Luer cannula), airway resistance (elastance) and compliance of mice were assessed at baseline and in response to increasing concentrations of methacholine (0 to 50 mg/ml in PBS) delivered via nebulization (AeroNeb) as described in Aravamudan et al. (Am. J. Physiol. Lung Cell. Mol. Physiol. (2012) 303:L669-L6810). Animals were maintained at 37° C., and while under muscle paralysis (pancuronium); airway function was measured by using the FlexiVent ventilator and lung mechanics system (SCIREQ, Montreal, Quebec, Canada), which was housed on Stabile 8. […] As shown in FIGS. 60B-C, bleomycin administration reduced static compliance and (dynamic) compliance in vehicle treated mice. […] Mice were euthanized by i.p injection of pentobarbital. Bronchoalveolar lavage (BAL) fluids and lungs is obtained and analyzed. Hydroxyproline content of lungs is measured as described in Christensen et al. (1999, Am. J. Pathol. 155:1773-1779), and quantitative histopathology is performed. RNA is extracted from lung tissue to measure senescence cell markers by qRT-PCR in treated and control mice.
Compound,"senescent cells in the joint (p16, IL-6, MMP13 mRNA) ([1]; 5.8 μg per operated knee intra-articular qod for 2 weeks, 4 weeks post-surgery)",weight bearing test (favoring the unoperated hind limb) ([1]; 4 weeks post-surgery),"hotplate paw-lick response time ([1]; 55° C., 4 weeks post-surgery)",histopathology: destruction of the proteoglycan layer [1],"type 2 collagen expression in operated joints ([1]; relative to actin, versus untreated OA surgery mice)",lung compliance (static and dynamic) [2],lung elastance [2],peripheral capillary oxygen saturation (SpO2) ([2]; approached normal levels at 21 days post bleomycin)
COc1ccc(C2=N[C@@H](c3ccc(Cl)cc3)[C@@H](c3ccc(Cl)cc3)N2C(=O)N2CCNC(=O)C2)c(OC(C)C)c1 [Nutlin-3a],clears senescent cells from the joint,abrogates this effect,decreases the response time in a significant manner; also recorded: reduces response time,completely abrogated this effect,drives ab initio collagen production,increased lung compliance,reduced lung elastance,
Nc1nc(O)c2ncn(COC(CO)CO)c2n1 [ganciclovir],,,,same impact on pathophysiology of osteoarthritis as Nutlin-3A,,improved compliance values significantly,reduced lung elastance,higher SpO2 levels
